How the values were obtained:
cerebral infarction [1] = assay: Example 2: concomitant use of histidine and HMT inhibitor, size of infarction after middle cerebral artery occlusion
Procedure: Twenty-five male Wistar rats weighing about 300 g were divided into 4 groups consisting of histidine 1000 mg/kg administration group, histidine 200 mg/kg+metoprine 10 mg/kg administration group, histidine 500 mg/kg+metoprine 10 mg/kg administration group, and histidine 1000 mg/kg+metoprine 10 mg/kg administration group.
The root of the right middle cerebral artery of these rats was occluded and blood flow was recovered as shown in the Example 1. Then, 200 mg/kg, 500 mg/kg or 1000 mg/kg of histidine was intraperitoneally administered to the rats, and 10 mg/kg of metoprine was further administered to the metoprine administration groups, as shown in the Example 1.
The samples were prepared by treating each rat as shown in the Example 1 and the size of infarction was measured. The obtained size of cerebral infarction was subjected to analysis of variance and the Bonferroni test.

cerebral infarction [2] = assay: Example 1: concomitant use of histidine and H3-receptor blocker, size of infarction after 2 h middle cerebral artery occlusion (TTC staining); assay type: in vivo, rat
Text: These rats were anesthetized with a gas mixture of 2% halothane, 49% oxygen and 49% laughing gas, and kept under spontaneous breathing. Subsequently, a median incision was made in the neck of the rat placed on its back, and the right common carotid artery was exposed. […] The tip of the nylon thread was placed 18 mm from the bifurcation. After suture of the incision of the skin, the rats were allowed to recover from anesthesia. During surgery, an electronic thermometer was inserted into the temporal muscle, and the body temperature was maintained at 37.0±0.1° C. with a lamp. […] Five minutes before reperfusion of blood flow, the rats were anesthetized again. […] Histidine was first dissolved in physiological saline adjusted to pH 4.0 with hydrochloric acid, and then the pH was resumed to 6.0 with sodium hydroxide. Further, 5 mg/kg of thioperamide was intraperitoneally injected to each thioperamide administration group. After recovery from anesthesia, the rats were allowed to access food and water freely. Twenty-four hours after recovery of blood flow, sodium pentobarbital was intraperitoneally administered to the rats for anesthesia. Subsequently, the brain was perfused with physiological saline, and the rat was decapitated. The brain was quickly dissected, and rinsed in physiological saline. The brain was sliced coronally between the optic chiasm and the caucal edge of the mammillary body at a thickness of 2 mm. […] As a result, triphenyltetrazolium chloride was reduced due to the action of dehydrogenase present in viable cells, and the tissue was stained in dark red. On the other hand, the dead tissue in the infarcted area was not stained. These brain slices were preserved in phosphate-buffered formalin overnight. Then, an investigator who was unaware of histidine administration measured the size of infarction using computer-aided planimetry.

[3] = system: pyramidal neurons in the hippocampal CA-1 region; conditions: administration prior to transient forebrain ischemia, rat; cited from earlier work
neuronal death = conditions: cited from earlier work
liver function = conditions: patients who received the agent; cited from earlier work
[4] = Example 2, histidine 1000 mg/kg i.p. alone after reperfusion, 24 h
[5] = histidine 200 mg/kg i.p. alone, single dose after reperfusion, 24 h
[6] = histidine 500 mg/kg i.p. alone after reperfusion, 24 h
[7] = histidine 1000 mg/kg i.p. alone after reperfusion, 24 h

Compound: N[C@@H](Cc1c[nH]cn1)C(=O)O [Histidine, histidine]
- suppressive effects on cerebral infarction (cerebral infarction [1]; 1000 mg/kg of histidine in a single dose after ischemia, without metoprine): not found
- size of cerebral infarction, Cerebral cortex (cerebral infarction [1]; [4]): 87.8 ± 42.5 mm^3
- size of cerebral infarction, Striatum (cerebral infarction [1]; [4]): 57.2 ± 20.2 mm^3
- size of cerebral infarction, Total (cerebral infarction [1]; [4]): 145.0 ± 59.2 mm^3
- size of cerebral infarction, Striatum (cerebral infarction [2]; histidine 200 mg/kg i.p. alone, single dose after reperfusion (2 h MCA occlusion), 24 h after recovery of blood flow): 35.3 ± 21.6 mm^3
- size of cerebral infarction, Cerebral cortex (cerebral infarction [2]; [5]): 106.3 ± 63.0 mm^3
- size of cerebral infarction, Total (cerebral infarction [2]; [5]): 141.6 ± 83.1 mm^3
- size of cerebral infarction, Cerebral cortex (cerebral infarction [2]; [6]): 86.0 ± 49.9 mm^3
- size of cerebral infarction, Striatum (cerebral infarction [2]; [6]): 30.5 ± 23.3 mm^3
- size of cerebral infarction, Total (cerebral infarction [2]; [6]): 116.5 ± 69.7 mm^3
- size of cerebral infarction, Cerebral cortex (cerebral infarction [2]; [7]): 114.2 ± 33.9 mm^3
- size of cerebral infarction, Striatum (cerebral infarction [2]; [7]): 47.8 ± 16.3 mm^3
- size of cerebral infarction, Total (cerebral infarction [2]; [7]): 162.0 ± 45.8 mm^3
- suppressive effects on cerebral infarction (cerebral infarction [2]; histidine alone in a single dose after ischemia (200, 500, 1000 mg/kg)): not found
- programmed death of neurons after transient ischemia [3]: depressed
- neuronal death 7 days after ischemia caused by apoptosis (neuronal death; histidine 4 times: shortly, 6, 24 and 48 hours after 15 minutes of transient ischemia, rats): depressed

Compound: CC1=NN(c2ccccc2)C(=O)C1 [edaravone]
- patients with abnormal values in laboratory tests on the liver function (liver function): 21.4%

Compound: COc1ccc(CN(CCN(C)C)c2ccccn2)cc1 [mepyramine]
- alleviation of nerve cell death by histidine in presence of histamine receptor blocker (neuronal death; co-administered with histidine, ranitidine used concomitantly with mepyramine): slightly suppressed

Reference: US20080039500A1, “Cerebral Infarction Suppressant” (priority 2004, published 2008)
